Reference: patent US20220089592A1, “IMIDAZO[1,2-A]PYRIDINYL DERIVATIVES AS IRAK4 INHIBITORS” (priority 2019, published 2022)

Experiments:
IRAK4 [1] = biological target: T1, IRAK4 (Homo sapiens, UniProt Q9NWZ3); assay: 2-hour 1 mM ATP IRAK4 Biochemical assay (as above, but with 100 pM IRAK4 and 1 mM ATP); conditions: IRAK4 MSD BIOCHEMICAL (1 mM ATP) IC50 (μM), 100 pM IRAK4, 2 hours
T1 sequence (Q9NWZ3 1-460): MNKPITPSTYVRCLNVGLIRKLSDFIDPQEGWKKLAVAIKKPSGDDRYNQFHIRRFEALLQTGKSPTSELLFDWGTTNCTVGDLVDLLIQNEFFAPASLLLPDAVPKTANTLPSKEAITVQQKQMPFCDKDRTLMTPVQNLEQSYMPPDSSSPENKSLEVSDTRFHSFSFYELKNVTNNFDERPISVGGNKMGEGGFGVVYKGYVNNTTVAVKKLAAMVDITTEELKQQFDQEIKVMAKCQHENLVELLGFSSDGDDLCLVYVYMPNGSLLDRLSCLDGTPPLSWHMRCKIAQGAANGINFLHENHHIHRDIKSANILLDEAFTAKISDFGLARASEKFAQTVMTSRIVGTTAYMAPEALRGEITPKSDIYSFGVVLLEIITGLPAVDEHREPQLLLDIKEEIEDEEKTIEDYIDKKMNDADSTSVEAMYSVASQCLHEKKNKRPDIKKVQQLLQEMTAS
Outline: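 MSD electrochemiluminescence read-out: biotinylated peptide product bound to streptavidin plates, probed with anti-P-Thr rabbit antibody and Sulfo-Tag goat anti-rabbit. Kinase reaction used 1 mM ATP and 100 pM IRAK4 over 2 hours before EDTA quench.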

IRAK4 [2] = biological target: T1, IRAK4; assay: 2-hour 10 μM ATP Biochemical Assay (MesoScale Detection format; IRAK4 phosphorylation of biotin labeled IRAK1 activation loop peptide); conditions: IRAK4 MSD BIOCHEMICAL (10 μM ATP) IC50 (μM), 1 nM IRAK4, 2 hours
Outline: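 Electrochemiluminescent MSD readout: after streptavidin capture, phosphothreonine on the biotin-labelled IRAK1 activation-loop peptide detected by rabbit antibody and Sulfo-Tag secondary. Phosphorylation ran 2 h with 10 μM ATP before EDTA quench.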

Structure (SMILES)	IC50 (IRAK4 [1]) [µM]	IC50 (IRAK4 [2]) [µM]
N#CC1CCC(Oc2cc3nc(C4CCOCC4)cn3cc2NC(=O)c2cccc(C(F)F)n2)C1 (centres unmarked) [Example 179, N-(7-((3-cyanocyclopentyl)oxy)-2-(tetrahydro-2H-pyran-4-yl)imidazo[1,2-a]pyridin-6-yl)-6-(difluoromethyl)picolinamide]	0.001	0.001
CCOc1cc2nc(C34CC(C#N)(C3)C4)cn2cc1NC(=O)c1cccc(C(F)(F)F)n1 [Example 521, N-(2-(3-cyanobicyclo[1.1.1]pentan-1-yl)-7-ethoxyimidazo[1,2-a]pyridin-6-yl)-6-(trifluoromethyl)picolinamide 2,2,2-trifluoroacetate]	0.001	0.001
CCOc1cc2nc(C3CCOCC3)cn2cc1NC(=O)c1ccn(C(C)C)n1 [Example 206, N-(7-ethoxy-2-(tetrahydro-2H-pyran-4-yl)imidazo[1,2-a]pyridin-6-yl)-1-isopropyl-1H-pyrazole-3-carboxamide]	0.019	0.005
CCOc1cc2nc([C@H]3C[C@@H](OC(C)C)C3)cn2cc1NC(=O)c1cccc(C(F)F)n1 [Example 136, 6-(difluoromethyl)-N-(7-ethoxy-2-((1s,3s)-3-isopropoxycyclobutyl)imidazo[1,2-a]pyridin-6-yl)picolinamide]	0.002	0.001
CCOc1cc2nc(CCC(F)F)cn2cc1NC(=O)c1cccc(C(F)F)n1 [Example 110, 6-(difluoromethyl)-N-(2-(3,3-difluoropropyl)-7-ethoxyimidazo[1,2-a]pyridin-6-yl)picolinamide]	0.001	0.001
CCOc1cc2nc(C(F)C3CCOC3)cn2cc1NC(=O)c1cccc(C(F)(F)F)n1 (mixture of isomers) [Example 142, N-(7-ethoxy-2-(fluoro(tetrahydrofuran-3-yl)methyl)imidazo[1,2-a]pyridin-6-yl)-6-(trifluoromethyl)picolinamide]	0.001	0.001
CCOc1cc2nc(C34CC(CO)(C3)C4)cn2cc1NC(=O)c1cccc(C(F)F)n1 [Example 130, 6-(difluoromethyl)-N-(7-ethoxy-2-(3-(hydroxymethyl)bicyclo[1.1.1]pentan-1-yl)imidazo[1,2-a]pyridin-6-yl)picolinamide]	0.001	0.001
CCOc1cc2nc(C3CCOCC3)cn2cc1NC(=O)c1cccc(C(C)(F)F)n1 [Example 227, 6-(1,1-difluoroethyl)-N-(7-ethoxy-2-(tetrahydro-2H-pyran-4-yl)imidazo[1,2-a]pyridin-6-yl)picolinamide]	0.001	0.001
CCOc1cc2nc(C3(C#N)CCOCC3)cn2cc1NC(=O)c1cccc(C(F)F)n1 [Example 160, N-(2-(4-cyanotetrahydro-2H-pyran-4-yl)-7-ethoxyimidazo[1,2-a]pyridin-6-yl)-6-(difluoromethyl)picolinamide]	0.002	0.001
CC1CCC(Oc2cc3nc(C4CCOCC4)cn3cc2NC(=O)c2cccc(C(F)F)n2)C1 (centres unmarked) [Example 178, 6-(difluoromethyl)-N-(7-((3-methylcyclopentyl)oxy)-2-(tetrahydro-2H-pyran-4-yl)imidazo[1,2-a]pyridin-6-yl)picolinamide]	0.001	0.001
CCOc1cc2nc(C3CN(CCOC)C3)cn2cc1NC(=O)c1cccc(C(F)F)n1 [Example 80, 6-(difluoromethyl)-N-(7-ethoxy-2-(1-(2-methoxyethyl)azetidin-3-yl)imidazo[1,2-a]pyridin-6-yl)picolinamide]	0.005	0.002
CCOc1cc2nc(C3(O)CCOCC3)cn2cc1NC(=O)c1cccc(C(F)F)n1 [Example 90, 6-(difluoromethyl)-N-(7-ethoxy-2-(4-hydroxytetrahydro-2H-pyran-4-yl)imidazo[1,2-a]pyridin-6-yl)picolinamide]	0.004	0.002
CCOc1cc2nc([C@H](C)[C@H]3CCOC3)cn2cc1NC(=O)c1cccc(C(F)(F)F)n1 (single isomer, unassigned) [Example 141]	0.001	0.001
